Publication PMC7502707, “Characterization and validation of a preventative therapy for hypertrophic cardiomyopathy in a murine model of the disease” (Proceedings of the National Academy of Sciences of the …, 2020)

Experiments:
[1] = test system: myocytes isolated from wt and cTnI-G203S mice; experiment: MTT assay (formation of formazan) in myocytes isolated from treated mice; assay type: in vivo, mouse; details: myocytes from precardiomyopathic cTnI-G203S mice treated 10 μM i.p. 3×/wk/5 wk from 20 wk
Experimental: The rate of reduction of MTT (Sigma-Aldrich) to formazan by the mitochondrial electron transport chain was measured in intact mouse cardiac myocytes, as previously described ([22], [25]). Each n represents number of replicates for each treatment group from cardiac myocytes isolated from a total of six wt [AID(S)-TAT], four cTnI-G203S [AID(S)-TAT], and three (AID-TAT) mice. Detailed methods are provided in SI Appendix. […]
The rate of reduction of 3-(4,5-Dimethyl-2-thiazolyl)-2,5-diphenyl-2H-tetrazolium bromide (MTT, Sigma-Aldrich, St. Louis, Missouri) to formazan by the mitochondrial electron transport chain was measured in intact mouse cardiac myocytes as previously described (1, 9). This reaction is dependent upon the presence of reduced nicotinamide adenine dinucleotide (NADH) and reduced nicotinamide adenine dinucleotide phosphate (NADPH), and intact mitochondrial electron transport (10). Cardiac myocytes were treated with relevant drugs in 96 well plates. MTT was added to each well to a final concentration of 0.5 mg/ml and the rate of the increase in absorbance immediately measured using a spectrophotometer at 37°C (PowerWave XS, 570 nm, reference wavelength of 620 nm). The rate of the increase in absorbance in response to treatments was expressed as a percentage of the rate of the increase prior to the addition of treatments. Each n represents number of replicates for each treatment group from cardiac myocytes isolated from a total of 6 wt (AID[S]- TAT), 4 cTnI-G203S (AID[S]-TAT), and 3 (AID-TAT) mice.
Immunoblot of ICa-L protein

[2] = biological target: T1, cardiac L-type calcium channel (ICa-L) (Mus musculus, UniProt Q01815); experiment: Whole-cell patch-clamp of ICa-L currents in ventricular myocytes; assay type: cell-based; details: cTnI-G203S myocytes, in vitro 1 μM peptide
T1 construct: measure changes in ICa-L currents ([13]), and stimulate calcium transients in intact ventricular myocytes; endogenous in cells; host or cells: ventricular myocytes isolated from wt (human cTnI transgene) and cTnI-G203S mice
Experimental: The whole-cell configuration of the patch-clamp technique was used to measure changes in ICa-L currents ([13]), and stimulate calcium transients in intact ventricular myocytes. Detailed methods are provided in SI Appendix.
Supporting Materials and Methods
Isolation of ventricular myocytes
Myocytes were isolated from wt and cTnI-G203S mice. Animals were anesthetized with pentobarbitone sodium (240 mg/kg) via intraperitoneal injection prior to excision of the heart. Cells were isolated as previously described (1-3). Mouse hearts were excised, cannulated onto a Langendorff apparatus via the aorta, and perfused with Krebs-Henseleit Buffer (KHB) containing […]
O2/CO2 at 37°C) for 4 min at 37°C. […]
The whole-cell configuration of the patch-clamp technique was used to measure changes in ICa-L currents (4), and stimulate calcium transients in intact ventricular myocytes. […] Currents were measured in extracellular modified Tyrode’s solution containing (in mM): NaCl 140, CsCl 5.4, CaCl2 2.5, MgCl2 0.5, HEPES 5.5 and glucose 11 (pH adjusted to 7.6 with NaOH). Macroscopic currents were recorded using an Axopatch 200B voltage-clamp amplifier (Molecular Devices) with a Digidata 1440A interface and pClamp10.5 software (Molecular Devices). […] The time course of changes in Ca2+ conductance were monitored by applying a 100 ms test pulse to 10 mV once every 10 seconds. […]

Sequence: QQLEEDLKGYLDWITQAE [AID-TAT]
- increase in metabolic activity (formazan from MTT) following BayK(−) [1]: reduced this response to a level comparable to that observed in wt myocytes
- ICa-L current density [2]: no significant alteration
- ICa-L inactivation rate (tau) ([2]; 37 °C): restored ICa-L inactivation rate to wt levels
